In patent US20260297118A1, “SUBSTITUTED PYRIMIDINONE AND AZAPYRIMIDINONE COMPOUNDS, COMPOSITIONS, AND USES THEREOF” (LAKEWOOD AMEDEX, INC., priority 2023, published 2026):

Key:
Type in all cases: cell-based
[1] = system: Staphylococcus aureus (43330); assay: MIC, broth microdilution, Staphylococcus aureus (43330); conditions: pH 3, Mueller Hinton Broth, 18 to 24 hours, read-out: MIC
Description: (§1) MIC testing is conducted using the broth (Mueller Hinton Broth) microdilution procedures relevant to each organism group as established by the Clinical and Laboratory Standards Institute (CLSI; 3-7). MIC plates are prepared in accordance with CLSI (3-7). To prepare the test plates, automated liquid handlers are used to conduct serial dilutions and liquid transfers. Automated liquid handlers utilized in this study include the Multidrop 384 (Labsystems, Helsinki, Finland) and the Biomek 2000 (Beckman Coulter, Fullerton CA). The solution is diluted to desired pH using 1 M Citric Acid or 1 M NaOH buffer. A standardized inoculum of each test organism is prepared per CLSI methods (3, 5-7) to equal a 0.5 McFarland standard in the appropriate media followed by an additional 1:20 dilution (1:10 for anaerobes).
(§2) The plates are then inoculated with 10 μL of the diluted 0.5 McFarland suspension using the Biomek 2000 from low to high drug concentration, resulting in a final concentration of approximately 5×10^5 CFU/mL per well. An un-inoculated plate is incubated for the purpose of assessing solubility of the drug in the test media. The plates are stacked 3 to 4 high, covered with a sterile lid on the top plate, and incubated for 18 to 24 hours according to CLSI. The MIC is recorded as the lowest concentration of respective compound that inhibited visible growth of the organism.

Escherichia coli (25922) = assay: MIC, broth microdilution, Escherichia coli (25922); conditions: pH 3, Mueller Hinton Broth, 18 to 24 hours, read-out: MIC
Description: as §1, §2

[2] = system: Pseudomonas aeruginosa (27853); assay: MIC, broth microdilution, Pseudomonas aeruginosa (27853); conditions: pH 3, Mueller Hinton Broth, 18 to 24 hours, read-out: MIC
Description: as §1, §2

Candida albicans (22972) = assay: MIC, broth microdilution, Candida albicans (22972); conditions: pH 3, Mueller Hinton Broth, 18 to 24 hours, read-out: MIC
Description: as §1, §2

E. faecalis ATCC-29212 = assay: MIC, broth microdilution, E. faecalis ATCC-29212; set-up: unit not given beside the values; conditions: E. faecalis ATCC-29212, Gram +ve; pH 3; 18 to 24 hours
Description: as §1, §2

E. faecalis MMX-3353 = assay: MIC, broth microdilution, E. faecalis MMX-3353; conditions: E. faecalis MMX-3353, Gram +ve; pH 3; 18 to 24 hours
Description: as §1, §2

E. faecium ATCC-35667 = assay: MIC, broth microdilution, E. faecium ATCC-35667; conditions: E. faecium ATCC-35667, Gram +ve; pH 3; 18 to 24 hours
Description: as §1, §2

E. faecium MMX-3355 = assay: MIC, broth microdilution, E. faecium MMX-3355; set-up: unit not given beside the values; conditions: E. faecium MMX-3355, Gram +ve; pH 3; 18 to 24 hours
Description: as §1, §2

S. agalactiae ATCC-13813 = assay: MIC, broth microdilution, S. agalactiae ATCC-13813; set-up: unit not given beside the values; conditions: S. agalactiae ATCC-13813, Gram +ve; pH 3; 18 to 24 hours
Description: as §1, §2

S. aureus ATCC -3591 = assay: MIC, broth microdilution, S. aureus ATCC -3591; set-up: unit not given beside the values; conditions: S. aureus ATCC -3591, Gram +ve; pH 3; 18 to 24 hours
Description: as §1, §2

S. aureus ATCC-29213 = assay: MIC, broth microdilution, S. aureus ATCC-29213; set-up: unit not given beside the values; conditions: S. aureus ATCC-29213, Gram +ve; pH 3; 18 to 24 hours
Description: as §1, §2

[3] = system: S. dysgalactiae ATCC-6644; assay: MIC, broth microdilution, S. dysgalactiae ATCC-6644; set-up: unit not given beside the values; conditions: S. dysgalactiae ATCC-6644, Gram +ve; pH 3; 18 to 24 hours
Description: as §1, §2

[4] = system: S. haemolyticus ATCC-29970; assay: MIC, broth microdilution, S. haemolyticus ATCC-29970; conditions: S. haemolyticus ATCC-29970, Gram +ve; pH 3; 18 to 24 hours
Description: as §1, §2

S. pyogenes ATCC-49399 = assay: MIC, broth microdilution, S. pyogenes ATCC-49399; set-up: unit not given beside the values; conditions: S. pyogenes ATCC-49399, Gram +ve; pH 3; 18 to 24 hours
Description: as §1, §2

[5] = system: S. saprophyticus ATCC-49907; assay: MIC, broth microdilution, S. saprophyticus ATCC-49907; set-up: unit not given beside the values; conditions: S. saprophyticus ATCC-49907, Gram +ve; pH 3; 18 to 24 hours
Description: as §1, §2

A. baumannii ATCC-19606 = assay: MIC, broth microdilution, A. baumannii ATCC-19606; set-up: unit not given beside the values; conditions: A. baumannii ATCC-19606, Gram −ve; pH 3; 18 to 24 hours
Description: as §1, §2

[6] = system: A. radioresistens MMX-8551; assay: MIC, broth microdilution, A. radioresistens MMX-8551; set-up: unit not given beside the values; conditions: A. radioresistens MMX-8551, Gram −ve; pH 3; 18 to 24 hours
Description: as §1, §2

C. freundii CDC-0157 = assay: MIC, broth microdilution, C. freundii CDC-0157; set-up: unit not given beside the values; conditions: C. freundii CDC-0157, Gram −ve; pH 3; 18 to 24 hours
Description: as §1, §2

C. striatum ATCC-6940 = assay: MIC, broth microdilution, C. striatum ATCC-6940; conditions: C. striatum ATCC-6940, Gram +ve; pH 3; 18 to 24 hours
Description: as §1, §2

E. cloacae ATCC BAA-2468 = assay: MIC, broth microdilution, E. cloacae ATCC BAA-2468; set-up: unit not given beside the values; conditions: E. cloacae ATCC BAA-2468, Gram −ve; pH 3; 18 to 24 hours
Description: as §1, §2

E. coli ATCC-25922 = assay: MIC, broth microdilution, E. coli ATCC-25922; set-up: unit not given beside the values; conditions: E. coli ATCC-25922, Gram −ve; pH 3; 18 to 24 hours
Description: as §1, §2

E. coli MMX-8870 = assay: MIC, broth microdilution, E. coli MMX-8870; conditions: E. coli MMX-8870, Gram −ve; pH 3; 18 to 24 hours
Description: as §1, §2

H. influenzae ATCC-49247 = assay: MIC, broth microdilution, H. influenzae ATCC-49247; set-up: unit not given beside the values; conditions: H. influenzae ATCC-49247, Gram −ve; pH 3; 18 to 24 hours
Description: as §1, §2

[7] = system: K. pneumoniae ATCC BAA-2146; assay: MIC, broth microdilution, K. pneumoniae ATCC BAA-2146; set-up: unit not given beside the values; conditions: K. pneumoniae ATCC BAA-2146, Gram −ve; pH 3; 18 to 24 hours
Description: as §1, §2

K. pneumoniae ATCC-43816 = assay: MIC, broth microdilution, K. pneumoniae ATCC-43816; set-up: unit not given beside the values; conditions: K. pneumoniae ATCC-43816, Gram −ve; pH 3; 18 to 24 hours
Description: as §1, §2

M. morganii CDC-0519 = assay: MIC, broth microdilution, M. morganii CDC-0519; set-up: unit not given beside the values; conditions: M. morganii CDC-0519, Gram −ve; pH 3; 18 to 24 hours
Description: as §1, §2

P. aeruginosa ATCC-27853 = assay: MIC, broth microdilution, P. aeruginosa ATCC-27853; set-up: unit not given beside the values; conditions: P. aeruginosa ATCC-27853, Gram −ve; pH 3; 18 to 24 hours
Description: as §1, §2

P. mirabilis CDC-0155 = assay: MIC, broth microdilution, P. mirabilis CDC-0155; set-up: unit not given beside the values; conditions: P. mirabilis CDC-0155, Gram −ve; pH 3; 18 to 24 hours
Description: as §1, §2

Structure (SMILES)	MIC [1] [µg/mL]	MIC (Escherichia coli (25922)) [µg/mL]	MIC [2] [µg/mL]	MIC (Candida albicans (22972)) [mg/mL]	MIC (E. faecalis ATCC-29212)	MIC (E. faecalis MMX-3353)	MIC (E. faecium ATCC-35667)	MIC (E. faecium MMX-3355)	MIC (S. agalactiae ATCC-13813)	MIC (S. aureus ATCC -3591)	MIC (S. aureus ATCC-29213)	MIC [3]	MIC [4]	MIC (S. pyogenes ATCC-49399)	MIC [5]	MIC (A. baumannii ATCC-19606)	MIC [6]	MIC (C. freundii CDC-0157)	MIC (C. striatum ATCC-6940)	MIC (E. cloacae ATCC BAA-2468)	other results
CCCCOP(=O)(O)OC[C@H]1O[C@@H](n2ccc(N)nc2=O)C(F)(F)[C@@H]1O [LAI-006, ((2R,3R,5R)-5-(4-amino-2-oxopyrimidin-1(2H)-yl)-4,4-difluoro-3-hydroxytetrahydrofuran-2-yl)methyl butyl hydrogen phosphate]	2300	600	800	50	0.39	3.13	1.56	3.13	0.10	3.13	1.56	0.05	0.10	0.39	0.10	0.39	0.39	3.13	0.78	0.39	MIC (E. coli ATCC-25922): 0.39; MIC (E. coli MMX-8870): 0.78; MIC (H. influenzae ATCC-49247): 0.78; MIC [7]: 0.78; MIC (K. pneumoniae ATCC-43816): 0.78; MIC (M. morganii CDC-0519): 3.13; MIC (P. aeruginosa ATCC-27853): 0.78; MIC (P. mirabilis CDC-0155): 3.13
CCCCOP(=O)(O)OC[C@H]1O[C@@H](n2ccc(N(C)C)nc2=O)C[C@@H]1O [LAI-008, butyl (((2R,3S,5R)-5-(4-(N,N-dimethylamino)-2-oxopyrimidin-1(2H)-yl)-3-hydroxytetrahydrofuran-2-yl)methyl) hydrogen phosphate]	25000	1000	5000	50	3.13	6.25	3.13	3.13	3.12	6.25	1.56	3.12	0.39	3.12	3.13	12.50	12.50	3.13	3.12	12.50	MIC (E. coli ATCC-25922): 6.25; MIC (E. coli MMX-8870): 12.50; MIC (H. influenzae ATCC-49247): 0.78; MIC [7]: 12.50; MIC (K. pneumoniae ATCC-43816): 12.50; MIC (M. morganii CDC-0519): 3.13; MIC (P. aeruginosa ATCC-27853): 5.63; MIC (P. mirabilis CDC-0155): 3.13
CCCCOP(=O)(O)OC[C@H]1O[C@@H](n2ccc(N(C)C)nc2=O)[C@H](OC)[C@@H]1O [LAK-021, (2R,3S,4R,5R)-5-(4-N,N-dimethylamino-2-oxopyrimidin-1(2H)-yl)-3-hydroxy-4-methoxy-tetrahydrofuran-2-methyl butyl phosphate]	4500	1250	800	> 50	3.13	3.13	3.13	3.13	0.78	6.25	3.13	0.78	3.13	0.78	1.56	1.56	1.56	1.56	0.78	1.56	MIC (E. coli ATCC-25922): 0.78; MIC (E. coli MMX-8870): 1.56; MIC (H. influenzae ATCC-49247): 0.39; MIC [7]: 1.56; MIC (K. pneumoniae ATCC-43816): 1.56; MIC (M. morganii CDC-0519): 1.56; MIC (P. aeruginosa ATCC-27853): 0.78; MIC (P. mirabilis CDC-0155): 1.56
